Assay results reported in paper PMC7391767, “Molecular mechanisms underlying menthol binding and activation of TRPM8 ion channel” (Nature Communications, 2020).
Values joined by “and” are separate entries in the source; they are usually repeats but may differ in a detail not shown here. Equal values may be shown once. “Also recorded” adds a separate entry of the source. Read-outs that look alike come from different tables or passages of the source.

Tests used:
Assay type in all cases: cell-based
TRPM8 Y1005F = target: T1, TRPM8 Y1005F (Mus musculus, UniProt Q8R4D5, Y1005F); assay: whole-cell patch-clamp and thermodynamic mutant cycle analysis; details: patch-clamp, peer review file
T1 construct: expressed in transfected cells; host or cells: HEK293T
Protocol: (§1) Murine TRPM8 was used in this study. Point mutations were made by Fast Mutagenesis Kit V2 (SBS Genetech). Primers used to generate point mutations are summarized in Supplementary Table 2.
(§2) HEK293T cells purchased from Kunming Cell Bank, Kunming Institute of Zoology, Chinese Academy of Sciences (ATCC, CRL-3216) were cultured in Dulbecco’s modified Eagle’s medium supplemented with 20 mM L-glutamine and 10% fetal bovine serum. Cells were transiently transfected with cDNA constructs by Lipofectamine 3000 (Life Technologies) following the manufacturer’s protocol. Patch-clamp recordings were performed 1–2 days after transfection.
(§3) Patch-clamp recordings were performed with a HEKA EPC10 amplifier controlled by PatchMaster software (HEKA). Whole-cell recordings were performed at ±80 mV. Patch pipettes were prepared from borosilicate glass and fire-polished to resistance of ~4 MΩ. For whole-cell recording, serial resistance was compensated by 60%. For single-channel recordings, patch pipettes were fire-polished to a higher resistance of 6-to-10 MΩ and then recorded in the inside-out configuration. To maximize the chance of obtaining a patch with only one channel, single-channel recordings were performed about 8 h after transfection. A solution with 130 mM NaCl, 10 mM glucose, 0.2 mM EDTA, and 3 mM HEPES (pH 7.2) was used in both bath and pipette for either whole-cell or single-channel recordings. Membrane potential was clamped at +80 mV for single-channel recordings. Current was sampled at 10 kHz and filtered at 2.9 kHz. All recordings were performed at room temperature (22 °C) with the maximum variation of 1 °C.
(§4) Ligands such as menthol and its analogs were perfused to membrane patch by a gravity-driven system (RSC-200, Bio-Logic). Bath and ligand solution were delivered through separate tubes to minimize the mixing of solutions. Patch pipette was placed in front of the perfusion tube outlet.
(§5) Data from whole-cell recordings were analyzed in Igor Pro version 6.1 (WaveMatrix). EC50 values were derived from fitting a Hill equation to the concentration–response relationship. […] To distinguish these possibilities, dissociation constant (Kd) for ligand binding was estimated assuming the following gating scheme:1 C0↔KdC1↔LO, where L is the equilibrium constant for the final closed-to-open transition.
(§6) To perform thermodynamic cycle analysis, Kd values of four channel-ligand combinations (WT channel, menthol: Kd _1; Mutant channel, menthol: Kd _2; WT channel, menthol analog: Kd _3; Mutant channel, menthol analog: Kd _4) were determined separately. The strength of coupling was determined by the coupling energy (kT multiplied by LnΩ, where k is the Boltzmann constant and T is temperature in Kelvin). LnΩ was calculated by Eq. (2) as[51]2 LnΩ=LnKd_1⋅Kd_4/Kd_2⋅Kd_3.

TRPM8 R842K = target: T2, TRPM8 R842K (Mus musculus, UniProt Q8R4D5, R842K); assay: as above
T2 construct: expressed in transfected cells; host or cells: HEK293T
Protocol: as §1, §2, §3, §4, §5, §6

TRPM8 Y745H = target: T3, TRPM8 Y745H (Mus musculus, UniProt Q8R4D5, Y745H); assay: whole-cell patch-clamp recording of menthol activation; details: Y745H mutation
T3 construct: expressed in transfected cells; host or cells: HEK293T
Protocol: as §1, §2
as §3, with “Membrane potential was clamped at +80 mV for single-channel recordings. Current was sampled at 10 kHz and filtered at 2.9 kHz. All recordings were performed at room temperature (22 °C) with the maximum variation of 1 °C.” left out

TRPM8 I846V = target: T4, TRPM8 I846V (Mus musculus, UniProt Q8R4D5, I846V); assay: whole-cell patch-clamp and thermodynamic mutant cycle analysis
T4 construct: expressed in transfected cells; host or cells: HEK293T
Protocol: Murine TRPM8 was used in this study. Point mutations were made by Fast Mutagenesis Kit V2 (SBS Genetech). Primers used to generate point mutations are summarized in Supplementary Table 2. All mutations were confirmed by sequencing.
as §2, §3, §4
Data from whole-cell recordings were analyzed in Igor Pro version 6.1 (WaveMatrix). EC50 values were derived from fitting a Hill equation to the concentration–response relationship. Changes in EC50 by point mutation may be caused by either perturbation of ligand bind or channel gating or both. To distinguish these possibilities, dissociation constant (Kd) for ligand binding was estimated assuming the following gating scheme:1 C0↔KdC1↔LO, where L is the equilibrium constant for the final closed-to-open transition.
as §6

wild-type TRPM8 = target: T5, wild-type TRPM8 (Mus musculus, UniProt Q8R4D5); assay: whole-cell patch-clamp recording of ligand activation
T5 construct: expressed in transfected cells; host or cells: HEK293T
Protocol: as §1
Cells were transiently transfected with cDNA constructs by Lipofectamine 3000 (Life Technologies) following the manufacturer’s protocol. Patch-clamp recordings were performed 1–2 days after transfection.
as §3, §4, §5

TRPM8 = target: T6, TRPM8 (Mus musculus, UniProt Q8R4D5); assay: whole-cell patch-clamp recording in response to a voltage ramp; details: beyond −200 mV; near saturating menthol (0.5 mM)
T6 construct: expressed in transfected cells; host or cells: HEK293T
Excerpt: Supplementary Figure 8. Deep hyperpolarization antagonized me nthol activation of TRPM8 but not capsaicin activation of TRPV1. ( a) Representative whole-cell patch- clamp recording of menthol activation of TRPM8 in response to a voltage ramp. In the hyperpolarized voltage range, TRPM8 current increased first and then decreased […]
mM menthol. (b) Representative whole- cell patch- clamp recording of capsaicin activation of TRPV1 in response to a voltage ramp. In the hyperpolarized voltage range, TRPV1 current kept increasing linearly with the lowering of membrane potential, which […]
(1 picture or pasted object on this page, not shown here)

[1] = calculated from concentration–response curves, read-out: Kd, Ave

T5 sequence (Q8R4D5 whole entry): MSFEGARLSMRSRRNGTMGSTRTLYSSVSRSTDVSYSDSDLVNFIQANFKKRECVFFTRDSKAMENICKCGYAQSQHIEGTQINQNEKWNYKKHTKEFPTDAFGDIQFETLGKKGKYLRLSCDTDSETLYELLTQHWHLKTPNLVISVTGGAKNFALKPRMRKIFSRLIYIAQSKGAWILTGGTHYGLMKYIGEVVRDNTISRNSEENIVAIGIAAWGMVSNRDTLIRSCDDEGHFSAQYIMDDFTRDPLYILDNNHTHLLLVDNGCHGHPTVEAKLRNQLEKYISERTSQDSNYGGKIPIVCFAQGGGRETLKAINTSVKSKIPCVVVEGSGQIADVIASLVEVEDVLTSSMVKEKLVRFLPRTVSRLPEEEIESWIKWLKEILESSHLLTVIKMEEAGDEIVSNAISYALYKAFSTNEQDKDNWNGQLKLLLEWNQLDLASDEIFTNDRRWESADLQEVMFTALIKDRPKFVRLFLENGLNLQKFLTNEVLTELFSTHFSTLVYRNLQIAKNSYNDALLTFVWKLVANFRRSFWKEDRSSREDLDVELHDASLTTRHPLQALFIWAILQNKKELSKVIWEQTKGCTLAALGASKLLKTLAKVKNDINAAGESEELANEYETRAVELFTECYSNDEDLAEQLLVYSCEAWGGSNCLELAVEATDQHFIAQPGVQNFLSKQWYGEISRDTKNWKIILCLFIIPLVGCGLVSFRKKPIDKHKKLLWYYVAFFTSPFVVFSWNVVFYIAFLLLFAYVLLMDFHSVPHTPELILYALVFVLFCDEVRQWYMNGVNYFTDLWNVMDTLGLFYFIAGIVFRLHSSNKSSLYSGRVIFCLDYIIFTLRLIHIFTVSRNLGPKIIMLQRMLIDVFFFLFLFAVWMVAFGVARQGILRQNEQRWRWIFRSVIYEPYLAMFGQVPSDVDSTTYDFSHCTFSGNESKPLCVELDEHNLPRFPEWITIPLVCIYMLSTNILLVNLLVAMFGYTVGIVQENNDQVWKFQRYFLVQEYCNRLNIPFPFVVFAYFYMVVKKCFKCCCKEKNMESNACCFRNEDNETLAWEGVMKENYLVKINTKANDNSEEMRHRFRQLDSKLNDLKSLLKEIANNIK
T4 sequence (Q8R4D5 whole entry I846V): as the sequence (Q8R4D5 whole entry) above, with I846V counted along it
T2 sequence (Q8R4D5 whole entry R842K): as the sequence (Q8R4D5 whole entry) above, with R842K counted along it
T6 sequence (Q8R4D5 whole entry): as the sequence (Q8R4D5 whole entry) above
T3 sequence (Q8R4D5 whole entry Y745H): as the sequence (Q8R4D5 whole entry) above, with Y745H counted along it
T1 sequence (Q8R4D5 whole entry Y1005F): as the sequence (Q8R4D5 whole entry) above, with Y1005F counted along it

SMILES: CC(C)[C@@H]1CC[C@@H](C)C[C@H]1O [menthol, (−)-menthol]
- EC50 (TRPM8 Y1005F): 498 ± 8.7 µM
- L (equilibrium constant between closed and open states upon ligand binding), Ave (TRPM8 R842K): 18.3882
- L, single recording (TRPM8 R842K): 24.6476 and 13.2288 and 17.2882
- concentration–response curve value, ave (TRPM8 R842K; 20 microM): 0.01439
- concentration–response curve value, ave (TRPM8 R842K; 100 microM): 0.2373
- concentration–response curve value, single recording (TRPM8 R842K; 100 microM): 0.2375 and 0.1865 and 0.1541 and 0.2977 and 0.2927 and 0.2 and 0.2925
- concentration–response curve value, ave (TRPM8 R842K; 500 microM): 0.6774
- concentration–response curve value, single recording (TRPM8 R842K; 500 microM): 0.6802 and 0.7221 and 0.591 and 0.6718 and 0.7751 and 0.601 and 0.7009
- concentration–response curve value, ave (TRPM8 R842K; 1000 microM): 0.8246
- concentration–response curve value, single recording (TRPM8 R842K; 1000 microM): 0.892 and 0.8781 and 0.8012 and 0.8485 and 0.8182 and 0.7917 and 0.7425
- concentration–response curve value, ave (TRPM8 R842K; 2000 microM): 0.8146
- concentration–response curve value, single recording (TRPM8 R842K; 2000 microM): 0.9219 and 0.8808 and 0.8026 and 0.7789 and 0.777 and 0.8121 and 0.7292
- Kd (TRPM8 R842K; [1]): 8710 µM
- Kd (TRPM8 R842K; read-out: Kd, single recording): 8480 µM and 6830 µM and 10800 µM
- Menthol activation (TRPM8 Y745H): barely activated; also recorded: virtually abolished
- L (equilibrium constant between closed and open states upon ligand binding), Ave (TRPM8 I846V): 5.981
- concentration–response curve value, ave (TRPM8 I846V; 1 microM): 0.07755
- concentration–response curve value, ave (TRPM8 I846V; 20 microM): 0.2593
- concentration–response curve value, ave (TRPM8 I846V; 100 microM): 0.6986
- concentration–response curve value, ave (TRPM8 I846V; 500 microM): 0.7722
- concentration–response curve value, ave (TRPM8 I846V; 2000 microM): 0.7707
- concentration–response curve value, single recording (TRPM8 I846V; 2000 microM): 0.8798 and 0.8106 and 0.8028 and 0.882 and 0.5707 and 0.6784
- Kd (TRPM8 I846V; [1]): 120 µM
- Kd (TRPM8 I846V; read-out: Kd, single recording): 88.3 µM and 109 µM and 97.6 µM and 116 µM and 189 µM
- L (equilibrium constant between closed and open states upon ligand binding), Ave (wild-type TRPM8; WT): 4.672 and 4.642
- concentration–response curve value, ave (wild-type TRPM8; WT, 1 microM): 0.025 and 0.02453
- concentration–response curve value, single recording (wild-type TRPM8; WT, 1 microM): 0.025 and 0.02453
- concentration–response curve value, ave (wild-type TRPM8; WT, 10 microM): 0.025 and 0.0249
- concentration–response curve value, single recording (wild-type TRPM8; WT, 10 microM): 0.021 and 0.029 and 0.02072 and 0.02909
- concentration–response curve value, ave (wild-type TRPM8; WT, 20 microM): 0.043
- concentration–response curve value, ave (wild-type TRPM8; WT, 30 microM): 0.090 and 0.08976
- concentration–response curve value, ave (wild-type TRPM8; WT, 100 microM): 0.426 and 0.4264
- concentration–response curve value, single recording (wild-type TRPM8; WT, 100 microM): 0.426 and 0.453 and 0.400 and 0.4256 and 0.4532 and 0.4003
- concentration–response curve value, ave (wild-type TRPM8; WT, 500 microM): 0.760 and 0.7604
- concentration–response curve value, single recording (wild-type TRPM8; WT, 500 microM): 0.796 and 0.730 and 0.755 and 0.7302 and 0.7548
- concentration–response curve value, ave (wild-type TRPM8; WT, 1000 microM): 0.801 and 0.8014
- concentration–response curve value, single recording (wild-type TRPM8; WT, 1000 microM): 0.847 and 0.769 and 0.788 and 0.8469 and 0.7692 and 0.7882
- Kd (wild-type TRPM8; WT, calculated from concentration–response curves (EC50 and Po max), read-out: Kd, Ave): 966 µM
- Hill coefficient (wild-type TRPM8; wild-type TRPM8): 1.74 ± 0.06
- effect of deep hyperpolarization on ligand-activated channel (TRPM8): decreased towards zero; also recorded: closed the channel
